# Several values for one entry are separate records, joined by “and”; a condition that tells them apart may be missing. Equal values may be shown once.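 96-well plates; 48 h exposure; 5 concentrations. Endpoints by linear interpolation between flanking doses. Not reached: highest tested concentration assigned. GI50: concentration for 50% inhibition of growth. At the TGI there is no net growth.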
# Key:
# Test in all cases: DTP human tumour cell line panel, 48 h
# [1] = test system: HCC-2998 colon
# [2] = test system: K-562 leukemia
# [3] = test system: DU-145 prostate
# [4] = test system: HCT-116 colon
# [5] = test system: MDA-MB-435
# [6] = test system: SK-MEL-5 melanoma
# [7] = test system: RPMI-8226 leukemia
# [8] = test system: ACHN renal
# [9] = test system: OVCAR-4 ovarian
# [10] = test system: SR leukemia
# [11] = test system: SN12C renal
# [12] = test system: SNB-75 CNS
# [13] = test system: OVCAR-3 ovarian
# [14] = test system: SK-OV-3 ovarian
# [15] = test system: HT29 colon
# [16] = test system: SNB-19 CNS
# [17] = test system: HOP-62 NSCLC
# [18] = test system: NCI-H522 lung
# [19] = test system: HOP-92 NSCLC
# [20] = test system: UACC-257 melanoma
# [21] = test system: A549 NSCLC
# [22] = test system: PC-3 prostate
# [23] = test system: LOX IMVI melanoma
# [24] = test system: BT-549 breast
# [25] = test system: KM12 colon
# [26] = test system: U251 CNS
# [27] = test system: RXF 393 renal
# [28] = test system: MCF7 breast
# [29] = test system: M14 melanoma
# [30] = test system: UACC-62 melanoma
# [31] = test system: HL-60(TB) leukemia
# [32] = test system: SF-295 CNS
# [33] = test system: OVCAR-5 ovarian
# [34] = test system: A498 renal
# [35] = test system: CCRF-CEM leukemia
# [36] = test system: SK-MEL-2 melanoma
# [37] = test system: 786-0 renal
# [38] = test system: HS 578T breast
# [39] = test system: HCT-15 colon
# [40] = test system: SK-MEL-28 melanoma
# [41] = test system: UO-31 renal
# [42] = test system: EKVX NSCLC
# [43] = test system: NCI/ADR-RES ovarian
# [44] = test system: CAKI-1 renal
# [45] = test system: NCI-H23 lung
# [46] = test system: SF-539 CNS
# [47] = test system: IGROV1 ovarian
# [48] = test system: COLO 205 colon
# [49] = test system: OVCAR-8 ovarian
# [50] = test system: SF-268 CNS
# [51] = test system: NCI-H226 lung
# [52] = test system: SW-620 colon
# [53] = test system: NCI-H460 lung
# [54] = test system: MALME-3M melanoma
# [55] = test system: T-47D breast
# [56] = test system: MDA-MB-231 breast
# [57] = test system: MOLT-4 leukemia
# [58] = test system: TK-10 renal
smiles,measurement,setting,value
COc1cc(C2C3=C(COC3=O)N(CCO)c3cc4c(cc32)OCO4)cc(OC)c1OC (stereo not given),GI50,[1],0.697 µM and 0.702 µM
same,TGI,[1],6.21 µM and 5.11 µM
same,GI50,[2],0.406 µM and 0.489 µM
same,TGI,[2],12.5 µM and > 16.8 µM
same,GI50,[3],0.342 µM and 0.55 µM
same,TGI,[3],1.02 µM and 2.59 µM
same,GI50,[4],0.468 µM and 0.524 µM
same,TGI,[4],12.5 µM and 13.8 µM
same,GI50,[5],0.175 µM and 0.151 µM
same,TGI,[5],0.592 µM and 0.616 µM
same,GI50,[6],0.359 µM and 0.561 µM
same,TGI,[6],2.46 µM and 4.35 µM
same,GI50,[7],0.521 µM and 0.715 µM
same,TGI,[7],12.5 µM and > 16.8 µM
same,GI50,[8],1.09 µM and 0.925 µM
same,TGI,[8],12.5 µM and > 16.8 µM
same,GI50,[9],0.706 µM and 0.987 µM
same,TGI,[9],12.5 µM and > 16.8 µM
same,GI50,[10],0.323 µM
same,TGI,[10],> 16.8 µM
same,GI50,[11],1.25 µM and 1.13 µM
same,TGI,[11],12.5 µM and > 16.8 µM
same,GI50,[12],0.514 µM and 0.251 µM
same,TGI,[12],12.5 µM and > 16.8 µM
same,GI50,[13],0.244 µM and 0.319 µM
same,TGI,[13],0.542 µM and 0.668 µM
same,GI50,[14],0.456 µM and 0.491 µM
same,TGI,[14],7.71 µM and > 16.8 µM
same,GI50,[15],0.403 µM and 0.585 µM
same,TGI,[15],1.94 µM and 2.03 µM
same,GI50,[16],0.408 µM and 0.72 µM
same,TGI,[16],6.65 µM and > 16.8 µM
same,GI50,[17],0.779 µM and 0.738 µM
same,TGI,[17],12.5 µM and > 16.8 µM
same,GI50,[18],0.173 µM and 0.26 µM
same,TGI,[18],0.666 µM and 1.25 µM
same,GI50,[19],6.02 µM and 5.99 µM
same,TGI,[19],12.5 µM and > 16.8 µM
same,TGI,[20],12.5 µM and > 16.8 µM
same,GI50,[21],0.595 µM and 1.06 µM
same,TGI,[21],12.5 µM and > 16.8 µM
same,GI50,[22],0.611 µM and 0.612 µM
same,TGI,[22],12.5 µM and > 16.8 µM
same,GI50,[23],0.976 µM
same,TGI,[23],> 16.8 µM
same,GI50,[24],4.33 µM and 0.834 µM
same,TGI,[24],12.5 µM and 9.33 µM
same,GI50,[25],0.334 µM and 0.462 µM
same,TGI,[25],2.31 µM and 8.86 µM
same,GI50,[26],0.5 µM and 0.631 µM
same,TGI,[26],12.5 µM and > 16.8 µM
same,GI50,[27],0.176 µM and 0.337 µM
same,TGI,[27],0.501 µM and 0.931 µM
same,GI50,[28],0.409 µM and 0.426 µM
same,TGI,[28],12.5 µM and > 16.8 µM
same,GI50,[29],0.311 µM and 0.363 µM
same,TGI,[29],0.926 µM and 1.38 µM
same,GI50,[30],1 µM and 0.565 µM
same,TGI,[30],12.5 µM and > 16.8 µM
same,GI50,[31],0.343 µM and 0.629 µM
same,GI50,[32],0.537 µM and 0.235 µM
same,GI50,[33],1.66 µM and 0.5 µM
same,TGI,[33],12.5 µM and > 16.8 µM
same,GI50,[34],0.257 µM and 0.407 µM
same,TGI,[34],1.07 µM and 8.82 µM
same,GI50,[35],0.473 µM and 0.802 µM
same,TGI,[35],12.5 µM and > 16.8 µM
same,GI50,[36],0.298 µM and 0.979 µM
same,GI50,[37],0.474 µM and 0.754 µM
same,TGI,[37],12.5 µM and > 16.8 µM
same,GI50,[38],0.276 µM and 0.268 µM
same,GI50,[39],1.52 µM and 1.13 µM
same,TGI,[39],12.5 µM and > 16.8 µM
same,GI50,[40],0.706 µM and 1.08 µM
same,TGI,[40],12.5 µM and > 16.8 µM
same,TGI,[41],12.5 µM and > 16.8 µM
same,GI50,[42],6.65 µM and 1.03 µM
same,TGI,[42],12.5 µM and > 16.8 µM
same,GI50,[43],3.92 µM and 14.8 µM
same,TGI,[43],12.5 µM and > 16.8 µM
same,GI50,[44],8.66 µM and 2.39 µM
same,TGI,[44],12.5 µM and > 16.8 µM
same,GI50,[45],0.412 µM and 0.574 µM
same,TGI,[45],2.46 µM and > 16.8 µM
same,GI50,[46],0.323 µM and 0.434 µM
same,TGI,[46],0.947 µM and 3.01 µM
same,GI50,[47],0.328 µM and 0.625 µM
same,TGI,[47],1.97 µM and 6.3 µM
same,GI50,[48],0.36 µM and 0.332 µM
same,TGI,[48],1.02 µM and 0.765 µM
same,GI50,[49],0.427 µM and 0.77 µM
same,TGI,[49],12.5 µM and > 16.8 µM
same,GI50,[50],0.321 µM and 0.872 µM
same,TGI,[50],2.05 µM and > 16.8 µM
same,GI50,[51],> 12.5 µM and 2.94 µM
same,TGI,[51],> 16.8 µM
same,GI50,[52],0.439 µM and 0.697 µM
same,TGI,[52],12.5 µM and > 16.8 µM
same,GI50,[53],0.438 µM and 0.542 µM
same,TGI,[53],12.5 µM and 3.4 µM
same,GI50,[54],0.532 µM and 0.745 µM
same,TGI,[54],12.5 µM and > 16.8 µM
same,GI50,[55],0.474 µM
same,TGI,[55],12.5 µM
same,GI50,[56],0.971 µM and 1.6 µM
same,TGI,[56],12.5 µM and > 16.8 µM
same,GI50,[57],0.675 µM and 4.39 µM
same,TGI,[57],12.5 µM and > 16.8 µM
same,GI50,[58],1.24 µM and 2.73 µM
same,TGI,[58],12.5 µM and > 16.8 µM

# Reference: PubChem BioAssay (NCI)
